Legend:
[1] = test system: partially purified peroxidase; assay: Oxidation of lignin substructure model compounds by partially purified peroxidase; format: biochemical, Streptomyces viridosporus T7A; details: 0.02% (wt/vol) model compound, hydrogen peroxide, pH 5.5, 37° C., 18 hours
Procedure: The model compounds were added to reaction mixtures at a final concentration of 0.02% (wt/vol). Reactions were carried out in a total volume of 3.0 ml, containing 0.1 mM hydrogen peroxide or a peroxide generating system consisting of 0.02 units/ml of glucose oxidase (Sigma) and 3 mM glucose 0.1M sodium tartrate buffer (pH 5.5) and 300 μl of enzyme preparation. Control reactions were performed with boiled enzyme preparation. Some reaction mixtures were flushed with oxygen and all were incubated at 37° C. for 18 hours on a shaker in slanting tubes. The reaction mixtures were then acidified to pH 2-3 with 12M HCl and extracted once with ether and once with ethyl acetate. […]
HPLC was performed on a Hewlett-Packard 1090A high pressure liquid chromatograph employing a HP-1040A diode array detector. During each run, chromatograms for 258, 280, and 310 nm were recorded and the ultraviolet (UV) absorbance spectrum (250-350 nm) of each peak was recorded at its front side, apex, and trailing side. […]
Only veratraldehyde, anisaldehyde and vanillin were detected by HPLC, GC, and GC/MS. Guaiacol, formed in trace amounds, was detected by HPLC, GC, and GC/MS. Small amounts of products (IV) and (V) were detected only by MS fragmentation. […]

[2] = test system: Peroxidase P3; details: inhibitor at final concentration lmM
[3] = test system: Peroxidase P3

Oxidation of the model compound by the peroxidase (bond cleaved) [1] | SMILES | % inhibition of peroxidase P3 activity, substrate L-DOPA [2] [%] | Specific activity, substrate L-DOPA, with inhibitor ([2]; partially purified P3) [Units/mg protein] | Inhibition of the enzyme (2,4-DCP and L-DOPA oxidizing activities), in words ([3]; 1 mM concentration) | % inhibition of peroxidase P3 activity, substrate 2,4,-DCP ([3]; inhibitor at final concentration lmM) [%] | Specific activity, substrate 2,4,-DCP, with inhibitor ([3]; inhibitor at final concentration lmM, partially purified P3) [Units/mg protein]
cleaved at the Cα -Cβ bond | COc1ccc(C(O)C(CO)Oc2ccccc2OC)cc1OC (stereo not shown) [I, 1-(3,4-Dimethoxyphenyl)-2-(2-methoxyphenoxy)propane-1,3-diol] | – | – | – | – | –
cleaved between the Cαand Cβcarbons | COc1ccc(C(=O)Cc2ccccc2)cc1 [III, 1-(4-methoxyphenyl)-2-(phenyl)ethan-1-one] | – | – | – | – | –
– | [N-]=[N+]=[N-] [sodium azide] | 41 | 0.18 | inhibited | 83 | 0.18

Reference: patent US5200338A, “Bacterial extracellular lignin peroxidase” (Idaho Research Foundation, Incorporation, priority 1988, dated 1993)
